Laboratory results published in US7884136B2, “Modified-release formulations of a bupropion salt” (Biovail Laboratories International S.R.L., priority 2005, dated 2011).
Read-outs that look alike come from different tables or passages of the source.

Tests used:
[1] = Accelerated stability study of bupropion HBr, closed bottles, 40° C./75% RH, 3 and 6 months, HPLC; format: physicochemical; settings: 40° C./R.H. 75%; for Chromatographic purity B) (HPLC): 4) 2-N-(tert-Butyl)-aminopropiophenone / Chromatographic purity B) (HPLC): 5) single unknown impurity (each): LOQ 0.02%, LOD 0.002%; for Chromatographic purity A) (HPLC): 1) 3′-Chloropropiophenone / Chromatographic purity A) (HPLC): 3) 3′-Chlorobenzoic acid / Chromatographic purity A) (HPLC): 2) 3′-Chloro-2-bromopropiophenone: LOQ 0.05%; for Chromatographic purity A) (HPLC): 1) 3′-Chloropropiophenone / Chromatographic purity A) (HPLC): 3) 3′-Chlorobenzoic acid: LOD 0.01%; for Chromatographic purity A) (HPLC): 2) 3′-Chloro-2-bromopropiophenone: LOD 0.04%; for Assay (HPLC): on d.b.; for Description: specification white or almost white crystalline powder; for Chromatographic purity B) (HPLC): 6) total unknown impurities: sum of all impurity peak areas
Experimental: The samples were prepared in closed bottles and placed in the stability chamber. HPLC analysis was conducted on the samples prior to placing them in the stability chamber (time 0), and after 3 months and 6 months. The amounts of the main degradation products present at time 0 were compared with those amounts present after 3 months and 6 months. […] For each sample tested, at each time period, two different HPLC assays were run. The first assay labelled chromatographic purity A, measured the percentage of three impurities 3′chloropropiophenone, 3′-Chloro-2-bromopropiophenone and 3′-Chlorobenzoic acid. The second assay, labelled chromatographic purity B, measured the percentage of 2-N-(tert-Butyl)-aminopropiophenone, a single unknown impurity and the total unknown impurities.

[2] = cited from earlier work
[3] = Lower Alcohol Fatty Acid Ester Surfactants, as reported by the manufacturer
[4] = Mono- and Diglyceride Surfactants
[5] = Transesterification Products of Oils and Alcohols
[6] = Propylene Glycol Fatty Acid Esters

## Br.CC(NC(C)(C)C)C(=O)c1cccc(Cl)c1 (centres unmarked) [Bupropion.HBr D00894]
[1]; 3 month
  Chromatographic purity (HPLC: A + B) Total impurities: 0.1%
  Water content (K.F.): 0.07%
  Chromatographic purity B) (HPLC): 4) 2-N-(tert-Butyl)-aminopropiophenone: 4)0.03%
  Chromatographic purity B) (HPLC): 5) single unknown impurity (each): 5) 0.04%
  Chromatographic purity A) (HPLC): 1) 3′-Chloropropiophenone: 1) n.q.
  Chromatographic purity A) (HPLC): 3) 3′-Chlorobenzoic acid: 3) n.q.
  Chromatographic purity A) (HPLC): 2) 3′-Chloro-2-bromopropiophenone: 2) n.d.
  Assay (HPLC): 99.6%
  Description: conform
  Chromatographic purity B) (HPLC): 6) total unknown impurities: 6) 0.06%
[1]; 6 months
  Chromatographic purity (HPLC: A + B) Total impurities: 0.1%
  Water content (K.F.): 0.08%
  Chromatographic purity B) (HPLC): 4) 2-N-(tert-Butyl)-aminopropiophenone: 4) 0.04%
  Chromatographic purity B) (HPLC): 5) single unknown impurity (each): 5) n.q.
  Chromatographic purity A) (HPLC): 1) 3′-Chloropropiophenone: 1) 0.05%
  Chromatographic purity A) (HPLC): 3) 3′-Chlorobenzoic acid: 3) n.q.
  Chromatographic purity A) (HPLC): 2) 3′-Chloro-2-bromopropiophenone: 2) n.d.
  Description: conform
[1]; time 0
  Chromatographic purity (HPLC: A + B) Total impurities: 0.1%
  Water content (K.F.): 0.05%
  Chromatographic purity B) (HPLC): 4) 2-N-(tert-Butyl)-aminopropiophenone: 4) 0.04%
  Chromatographic purity B) (HPLC): 5) single unknown impurity (each): 5) 0.04%
  Chromatographic purity A) (HPLC): 1) 3′-Chloropropiophenone: 1) n.d.
  Chromatographic purity A) (HPLC): 3) 3′-Chlorobenzoic acid: 3) n.q.
  Chromatographic purity A) (HPLC): 2) 3′-Chloro-2-bromopropiophenone: 2) n.d.
  Assay (HPLC): 99.6%
  Description: conform
  Chromatographic purity B) (HPLC): 6) total unknown impurities: 6) 0.04%

## Br.CC(NC(C)(C)C)C(=O)c1cccc(Cl)c1 (centres unmarked) [Bupropion.HBr D00895]
[1]; 3 month
  Chromatographic purity (HPLC: A + B) Total impurities: 0.1%
  Water content (K.F.): 0.07%
  Chromatographic purity B) (HPLC): 4) 2-N-(tert-Butyl)-aminopropiophenone: 4) 0.03%
  Chromatographic purity B) (HPLC): 5) single unknown impurity (each): 5) 0.04%
  Chromatographic purity A) (HPLC): 1) 3′-Chloropropiophenone: 1) n.q.
  Chromatographic purity A) (HPLC): 3) 3′-Chlorobenzoic acid: 3) 0.05%
  Chromatographic purity A) (HPLC): 2) 3′-Chloro-2-bromopropiophenone: 2) n.d.
  Assay (HPLC): 100.7%
  Description: conform
  Chromatographic purity B) (HPLC): 6) total unknown impurities: 6) 0.05%
[1]; 6 months
  Chromatographic purity (HPLC: A + B) Total impurities: 0.1%
  Water content (K.F.): 0.07%
  Chromatographic purity B) (HPLC): 4) 2-N-(tert-Butyl)-aminopropiophenone: 4) 0.04%
  Chromatographic purity B) (HPLC): 5) single unknown impurity (each): 5) n.q.
  Chromatographic purity A) (HPLC): 1) 3′-Chloropropiophenone: 1) 0.05%
  Chromatographic purity A) (HPLC): 3) 3′-Chlorobenzoic acid: 3) n.q.
  Chromatographic purity A) (HPLC): 2) 3′-Chloro-2-bromopropiophenone: 2) n.d.
  Assay (HPLC): 99.7%
  Description: conform
  Chromatographic purity B) (HPLC): 6) total unknown impurities: 6) 0.02%
[1]; time 0
  Chromatographic purity (HPLC: A + B) Total impurities: 0.1%
  Water content (K.F.): 0.04%
  Chromatographic purity B) (HPLC): 4) 2-N-(tert-Butyl)-aminopropiophenone: 4) 0.04%
  Chromatographic purity B) (HPLC): 5) single unknown impurity (each): 5) 0.04%
  Chromatographic purity A) (HPLC): 1) 3′-Chloropropiophenone: 1) n.d.
  Chromatographic purity A) (HPLC): 3) 3′-Chlorobenzoic acid: 3) n.q.
  Chromatographic purity A) (HPLC): 2) 3′-Chloro-2-bromopropiophenone: 2) n.d.
  Assay (HPLC): 99.2%
  Description: conform

## Br.CC(NC(C)(C)C)C(=O)c1cccc(Cl)c1 (centres unmarked) [Bupropion.HBr D00896]
[1]; 3 month
  Chromatographic purity (HPLC: A + B) Total impurities: 0.1%
  Water content (K.F.): 0.11%
  Chromatographic purity B) (HPLC): 4) 2-N-(tert-Butyl)-aminopropiophenone: 4) 0.03%
  Chromatographic purity B) (HPLC): 5) single unknown impurity (each): 5) 0.04%
  Chromatographic purity A) (HPLC): 1) 3′-Chloropropiophenone: 1) n.q.
  Chromatographic purity A) (HPLC): 3) 3′-Chlorobenzoic acid: 3) n.q.
  Chromatographic purity A) (HPLC): 2) 3′-Chloro-2-bromopropiophenone: 2) n.d.
  Assay (HPLC): 100.0%
  Description: conform
[1]; 6 months
  Chromatographic purity (HPLC: A + B) Total impurities: 0.1%
  Water content (K.F.): 0.04%
  Chromatographic purity B) (HPLC): 4) 2-N-(tert-Butyl)-aminopropiophenone: 4) 0.04%
  Chromatographic purity B) (HPLC): 5) single unknown impurity (each): 5) n.q.
  Chromatographic purity A) (HPLC): 1) 3′-Chloropropiophenone: 1) 0.05%
  Chromatographic purity A) (HPLC): 3) 3′-Chlorobenzoic acid: 3) n.q.
  Chromatographic purity A) (HPLC): 2) 3′-Chloro-2-bromopropiophenone: 2) n.d.
  Assay (HPLC): 100.4%
  Description: conform
  Chromatographic purity B) (HPLC): 6) total unknown impurities: 6) n.q.
[1]; time 0
  Chromatographic purity (HPLC: A + B) Total impurities: 0.1%
  Water content (K.F.): 0.06%
  Chromatographic purity B) (HPLC): 4) 2-N-(tert-Butyl)-aminopropiophenone: 4) 0.04%
  Chromatographic purity B) (HPLC): 5) single unknown impurity (each): 5) 0.05%
  Chromatographic purity A) (HPLC): 1) 3′-Chloropropiophenone: 1) n.d.
  Chromatographic purity A) (HPLC): 3) 3′-Chlorobenzoic acid: 3) n.q.
  Chromatographic purity A) (HPLC): 2) 3′-Chloro-2-bromopropiophenone: 2) n.d.
  Assay (HPLC): 99.3%
  Description: conform
  Chromatographic purity B) (HPLC): 6) total unknown impurities: 6) 0.05%

## CCCCC/C=C\C/C=C\CCCCCCCC(=O)OCC [Ethyl linoleate]
[2]; [3]
  HLB: <10

## CCCCCCCC/C=C\CCCCCCCC(=O)OCC [Ethyl oleate]
[2]; [3]
  HLB: <10

## CCCCC/C=C\C/C=C\CCCCCCCC(=O)OCC(O)CO (centres unmarked) [Glycerol monolinoleate]
[2]; [4]
  HLB: 3-4

## CCCCCCCCCCCCCCCC(=O)OCC(O)CO (centres unmarked) [Glycerol monopalmitate]
[2]; [4]
  HLB: 4

## CCCCCCCCCCCCCCCCCC(=O)OCC(O)CO (centres unmarked) [Glycerol monostearate]
[2]; [4]
  HLB: 5-9

## CC(=O)OCC(O)CO (centres unmarked) [Glyceryl acetate]
[2]; [4]
  HLB: <10

## CCCCCCCC(=O)OCC(O)CO (centres unmarked) [Glyceryl caprylate]
[2]; [4]
  HLB: 5-6

## CCCCCCCCCCCC(=O)OCC(O)CO (centres unmarked) [Glyceryl laurate]
[2]; [4]
  HLB: 4

## CCCCCCCCCCCC(=O)OCC(O)CO (centres unmarked) [Glyceryl monolaurate]
[2]; [4]
  HLB: 6.8

## CCCCCCCCCCCCCC(=O)OCC(O)CO (centres unmarked) [Glyceryl monomyristate (C14)]
[2]; [4]
  HLB: 3-4

## CCCCCCCC/C=C\CCCCCCCC(=O)OCC(O)CO (centres unmarked) [Glyceryl monooleate]
[2]; [4]
  HLB: 3-4

## CCCCCC[C@@H](O)C/C=C\CCCCCCCC(=O)OCC(O)CO (some centres unmarked) [Glyceryl ricinoleate]
[2]; [4]
  HLB: 6

## CCCCC/C=C\C/C=C\CCCCCCCC(=O)OC(C)C [Isopropyl linoleate]
[2]; [3]
  HLB: <10

## CCCCCCCCCCCCCC(=O)OC(C)C [Isopropyl myristate]
[2]; [3]
  HLB: <10

## CCCCCCCCCC(=O)OCC(O)CO (centres unmarked) [Monocaprin]
[2]; [4]
  HLB: <10

## CCCCCC(=O)OCC(O)CO (centres unmarked) [Monocaproin (C6)]
[2]; [4]
  HLB: <10

## CCCCCCCC(=O)OCC(O)CO (centres unmarked) [Monocaprylin]
[2]; [4]
  HLB: <10

## CCCCCCCC/C=C/CCCCCCCC(=O)OCC(O)CO (centres unmarked) [Monoelaidin (C18:1)]
[2]; [4]
  HLB: <10

## CCCCCCCCCCCC(=O)OCC(O)CO (centres unmarked) [Monolaurin]
[2]; [4]
  HLB: <10

## CCCCCCCCCCCCCCCCCC(=O)OCC(CO)(CO)COC(=O)CCCCCCCCCCCCCCCCC [Pentaerythrityl distearate]
[2]; [5]
  HLB: <10

## CCCCCCCC/C=C\CCCCCCCC(=O)OCC(COC(=O)CCCCCCC/C=C\CCCCCCCC)(COC(=O)CCCCCCC/C=C\CCCCCCCC)COC(=O)CCCCCCC/C=C\CCCCCCCC [Pentaerythrityl tetraoleate]
[2]; [5]
  HLB: <10

## CCCCCCCCCCCCCCCCCC(=O)OCC(COC(=O)CCCCCCCCCCCCCCCCC)(COC(=O)CCCCCCCCCCCCCCCCC)COC(=O)CCCCCCCCCCCCCCCCC [Pentaerythrityl tetrastearate]
[2]; [5]
  HLB: <10

## CCCCCCCCCC(=O)OCC(C)OC(=O)CCCCCCCCC (centres unmarked) [Propylene glycol dicaprate]
[2]; [6]
  HLB: >6

## CCCCCCCC(=O)OCC(C)OC(=O)CCCCCCC (centres unmarked) [Propylene glycol dicaprylate]
[2]; [6]
  HLB: >6
